Assay results reported in publication PMC6522510 (Nature Communications, 2019).
Values joined by “and” are separate entries in the source; they are usually repeats but may differ in a detail not shown here. Equal values may be shown once. Where a name gives a salt, the structure may show the parent alone. Read-outs that look alike come from different tables or passages of the source.

Assays:
U937 [1] = experiment: Secondary dose-response HTS, Cell Titer Glo; type: cell-based, human; details: secondary high-throughput screen, U937; for EC50: read-out: average effective concentration, U937
CMS [2] = experiment: Secondary dose-response HTS, Cell Titer Glo; type: cell-based, human; details: for EC50: read-out: average effective concentration, CMS
CMK [3] = experiment: Secondary dose-response HTS, Cell Titer Glo; type: cell-based, human; details: CMK; for EC50: read-out: average effective concentration, CMK
MOLM-13 = experiment: Secondary dose-response HTS, Cell Titer Glo; type: cell-based, human
ML2 = experiment: Secondary dose-response HTS, Cell Titer Glo; type: cell-based, human
MV4-11 [4] = experiment: Secondary dose-response HTS, Cell Titer Glo; type: cell-based, human
CHRF288-11 [5] = experiment: Secondary dose-response HTS, Cell Titer Glo; type: cell-based, human; details: for EC50: read-out: average effective concentration, CHRF288-11
M07e [6] = experiment: cells; design: species or system AML cell lines (8); Secondary HTS, 10-point dose-response in triplicate, Cell Titer Glo viability, four-parameter fit EC50; details: M-07e, 72 h, read-out: M07e
CMS [7] = experiment: cells; design: species or system AML cell lines (8); Secondary HTS, 10-point dose-response in triplicate, Cell Titer Glo viability, four-parameter fit EC50; details: 72 h, read-out: CMS
CHRF288-11 [8] = experiment: cells; design: species or system AML cell lines (8); Secondary HTS, 10-point dose-response in triplicate, Cell Titer Glo viability, four-parameter fit EC50; details: 72 h, read-out: CHRF288-11
ML-2 = system: ML-2; design: species or system AML cell lines (8); Primary HTS, single concentration about 10 uM, Cell Titer Glo viability; log10 luminescence, per cent inhibition relative to cycloheximide control; details: 72 h, relative to cycloheximide control, log10 luminescence, inhibitor, ML-2 %inh, 10 µM
CMK [9] = system: CMK; design: species or system AML cell lines (8); Primary HTS, single concentration about 10 uM, Cell Titer Glo viability; log10 luminescence, per cent inhibition relative to cycloheximide control; details: 72 h, relative to cycloheximide control, log10 luminescence, inhibitor, CMK %inh, 10 µM
CMS [10] = system: CMS; design: species or system AML cell lines (8); Primary HTS, single concentration about 10 uM, Cell Titer Glo viability; log10 luminescence, per cent inhibition relative to cycloheximide control; details: 72 h, relative to cycloheximide control, log10 luminescence, inhibitor, CMS %inh, 10 µM
M07e [11] = system: M07e; design: species or system AML cell lines (8); Primary HTS, single concentration about 10 uM, Cell Titer Glo viability; log10 luminescence, per cent inhibition relative to cycloheximide control; details: 72 h, relative to cycloheximide control, log10 luminescence, inhibitor, M07e %inh, 10 µM
MV4-11 [12] = system: MV4-11; design: species or system AML cell lines (8); Primary HTS, single concentration about 10 uM, Cell Titer Glo viability; log10 luminescence, per cent inhibition relative to cycloheximide control; details: 72 h, relative to cycloheximide control, log10 luminescence, inhibitor, MV4-11 %inh, 10 µM
CHRF288-11 [13] = system: CHRF288-11; design: species or system AML cell lines (8); Primary HTS, single concentration about 10 uM, Cell Titer Glo viability; log10 luminescence, per cent inhibition relative to cycloheximide control; details: 72 h, relative to cycloheximide control, log10 luminescence, inhibitor, CHRF288-11 %inh, 10 µM
U937 [14] = experiment: cells; design: species or system AML cell lines (8); Secondary HTS, 10-point dose-response in triplicate, Cell Titer Glo viability, four-parameter fit EC50; details: Homo sapiens, U-937, 72 h, read-out: U937
[15] = secondary high-throughput screen, CMS
[16] = secondary high-throughput screen
[17] = secondary high-throughput screen, MOLM-13, read-out: average effective concentration, MOLM-13
[18] = secondary high-throughput screen, ML-2, read-out: average effective concentration, ML-2
[19] = secondary high-throughput screen, MV4-11, read-out: average effective concentration, MV4-11
[20] = secondary high-throughput screen, CHRF288-11
[21] = Homo sapiens, HTS, secondary high-throughput screen, CMS
[22] = Homo sapiens, secondary high-throughput screen
[23] = Homo sapiens, secondary high-throughput screen, MOLM-13, read-out: average effective concentration, MOLM-13
[24] = Homo sapiens, secondary high-throughput screen, ML-2, read-out: average effective concentration, ML-2
[25] = Homo sapiens, secondary high-throughput screen, MV4-11, read-out: average effective concentration, MV4-11
[26] = Homo sapiens, HTS, secondary high-throughput screen, CHRF288-11
[27] = secondary high-throughput screen, MV4-11

| Compound | EC50 (U937 [1]; Homo sapiens, U-937) [µM] | EC50 (MOLM-13; [23]) [µM] | EC50 (MV4-11 [4]; [25]) [µM] | EC50 (CMS [2]; [21]) [µM] | EC50 (CMK [3]; [22]) [µM] | EC50 (M07e [6]) [µM] | EC50 (ML2; [24]) [µM] | EC50 (CHRF288-11 [5]; [26]) [µM] | EC50 (CMS [2]; Homo sapiens, HTS) [µM] | EC50 (CMK [3]; Homo sapiens) [µM] | also measured |
| --- | --- | --- | --- | --- | --- | --- | --- | --- | --- | --- | --- |
| C[C@H](Oc1cc(-c2cnn(C3CCNCC3)c2)cnc1N)c1c(Cl)ccc(F)c1Cl [(S)-CRIZOTINIB] |  |  |  |  |  |  |  |  |  |  | average effective concentration, U937 (U937 [1]): Inactive; EC50 (CMS [2]; [15]): 8.3 µM; EC50 (CMK [3]; [16]): 4.2 µM; EC50 (MOLM-13; [17]): 3.9 µM; EC50 (ML2; [18]): 5 µM; EC50 (MV4-11 [4]; [19]): 3.9 µM; EC50 (CHRF288-11 [5]; [20]): 7.8 µM |
| Nc1cc(C(F)(F)F)c(-c2cc(N3CCOCC3)nc(N3CCOCC3)n2)cn1 [BUPARLISIB] | 3 | 1.5 | 1.8 |  |  | > 10 | 1.4 | 5.7 | 1.6 | 4.1 |  |
| COCc1c(C(C)C)nc(C(C)C)c(/C=C/[C@@H](O)C[C@@H](O)CC(=O)O)c1-c1ccc(F)cc1 [CERIVASTATIN] | 2.3 | 0.89 | 0.34 | 6.8 | 0.16 | > 10 | 1.6 | 0.049 |  |  |  |
| CC(C)c1cc(-c2n[nH]c(=O)n2-c2ccc3c(ccn3C)c2)c(O)cc1O [GANETESPIB] | 0.0016 | 0.0024 | 0.001 |  |  | > 10 | 0.0054 | 0.007 | 0.01 | 0.0023 | EC50 (CMS [7]): 0.0096 µM |
| C=C1C(=O)O[C@@H]2C[C@@]3(C)CCCC(=C)[C@@H]3C[C@H]12 [ISOHELENIN] |  |  |  |  |  |  |  |  |  |  | EC50 (U937 [1]): 8.2 µM; EC50 (CMS [2]; [15]): 5.4 µM; EC50 (CMK [3]; [16]): 5.2 µM; EC50 (MOLM-13; [17]): 5.9 µM; EC50 (ML2; [18]): 6.6 µM; average effective concentration, MV4-11 (MV4-11 [4]; [27]): Inactive; EC50 (CHRF288-11 [5]; [20]): 6.7 µM |
| CNC(=O)c1nn(C)c2c1C(C)(C)Cc1cnc(Nc3ccc(N4CCN(C)CC4)cc3)nc1-2 [MILCICLIB] | 5.3 | 0.001 | 0.001 |  |  | > 10 | 5.6 | 2.2 | 6.4 | 0.029 |  |
| CC1(C)CCC(c2ccc(Cl)cc2)=C(CN2CCN(c3ccc(C(=O)NS(=O)(=O)c4ccc(N[C@H](CCN5CCOCC5)CSc5ccccc5)c(S(=O)(=O)C(F)(F)F)c4)cc3)CC2)C1 [NAVITOCLAX] | > 10 | 5.1 | 0.068 |  |  | > 10 | 7.1 | > 10 | 0.029 | 1.2 | ML-2 %inh (ML-2): 57.75% and 49.42%; CMK %inh (CMK [9]): 132.4% and 82.78%; CMS %inh (CMS [10]): 98.49% and 71.04%; M07e %inh (M07e [11]): 48.21% and 73.78%; MV4-11 %inh (MV4-11 [12]): 77.41% and 95.61%; CHRF288-11 %inh (CHRF288-11 [13]): 23.49% and 12.88% |
| Cc1cnc(NC(=O)Nc2cc(Br)c(C)cc2OC[C@@H]2CNCCO2)cn1 [RABUSERTIB] | 3.3 | 0.4 | 0.5 | 8.5 | 0.45 | > 10 | 0.074 | 2.1 |  |  |  |
| Cn1cc(-c2cnn3c(N)c(Br)c([C@@H]4CCCNC4)nc23)cn1 [SCH-900776] |  |  |  |  |  | > 10 |  |  | > 10 | 0.13 | EC50 (MOLM-13; Homo sapiens, MOLM-13, read-out: average effective concentration, MOLM-13): 0.051 µM; EC50 (ML2; Homo sapiens, ML-2, read-out: average effective concentration, ML-2): 0.053 µM; EC50 (MV4-11 [4]; Homo sapiens, MV4-11, read-out: average effective concentration, MV4-11): 0.083 µM; EC50 (CHRF288-11 [5]; Homo sapiens, HTS): 0.47 µM; EC50 (U937 [14]): > 10 µM |
| C=CCNC1=C2C[C@@H](C)C[C@H](OC)[C@H](O)[C@@H](C)/C=C(\C)[C@H](OC(N)=O)[C@@H](OC)/C=C\C=C(/C)C(=O)NC(=CC1=O)C2=O [TANESPIMYCIN] | 0.05 | 0.08 | 0.12 | 0.18 | 0.28 | > 10 | 0.1 | 1.3 |  |  |  |
| O=C(NCC1(c2nc(-c3ccccc3)cs2)CCOCC1)c1cccc(-c2noc(C(F)(F)F)n2)c1 [TMP269] |  |  |  |  |  |  |  |  |  |  | average effective concentration, U937 (U937 [1]): Inactive; average effective concentration, CMS (CMS [2]; [15]): Inactive; average effective concentration, CMK (CMK [3]; [16]): Inactive; average effective concentration, MOLM-13 (MOLM-13; secondary high-throughput screen, MOLM-13): Inactive; average effective concentration, ML-2 (ML2; secondary high-throughput screen, ML-2): Inactive; average effective concentration, MV4-11 (MV4-11 [4]; [27]): Inactive; average effective concentration, CHRF288-11 (CHRF288-11 [5]; [20]): Inactive |
| CC[C@]1(O)C[C@@H]2CN(CCc3c([nH]c4ccccc34)[C@@](C(=O)OC)(c3cc4c(cc3OC)N(C)[C@H]3[C@@](O)(C(=O)OC)[C@H](OC(C)=O)[C@]5(CC)C=CCN6CC[C@]43[C@@H]65)C2)C1 [VINBLASTINE SULFATE] | 0.16 | 0.22 | 0.056 | 0.34 | 3.8 | > 10 | 0.57 | 0.57 |  |  |  |
| COCCn1c2c([n+](Cc3cnccn3)c1C)C(=O)c1ccccc1C2=O [YM-155] | 0.022 | 0.01 | 0.02 | 0.091 | 0.031 | > 10 | 0.021 | 2.3 |  |  |  |
| I-BET151 |  |  |  |  |  |  |  |  |  |  | EC50 (U937 [1]): 3.2 µM; EC50 (CMS [2]; [15]): 2.1 µM; average effective concentration, CMK (CMK [3]; [16]): Inactive; EC50 (MOLM-13; [17]): 0.65 µM; EC50 (ML2; [18]): 2.7 µM; average effective concentration, MV4-11 (MV4-11 [4]; [27]): Inactive; EC50 (CHRF288-11 [5]; [20]): 5.1 µM |
| MITHRAMYCIN A |  |  |  |  |  |  |  |  |  |  | EC50 (U937 [1]): 0.24 µM; EC50 (CMS [2]; [15]): 0.18 µM; EC50 (CMK [3]; [16]): 0.26 µM; EC50 (MOLM-13; [17]): 0.14 µM; EC50 (ML2; [18]): 0.23 µM; EC50 (MV4-11 [4]; [19]): 0.053 µM; EC50 (CHRF288-11 [5]; [20]): 0.16 µM |

Second part, led by results:

| EC50 (U937 [1]; Homo sapiens, U-937) [µM] | EC50 (MOLM-13; [23]) [µM] | EC50 (MV4-11 [4]; [25]) [µM] | Compound | EC50 (CMS [2]; [21]) [µM] | EC50 (CMK [3]; [22]) [µM] | EC50 (M07e [6]) [µM] | EC50 (ML2; [24]) [µM] | EC50 (CHRF288-11 [5]; [26]) [µM] | EC50 (CMS [2]; Homo sapiens, HTS) [µM] | EC50 (CMK [3]; Homo sapiens) [µM] | also measured |
| --- | --- | --- | --- | --- | --- | --- | --- | --- | --- | --- | --- |
| 0.063 | > 10 | 0.001 | NC(=O)Nc1cc(-c2cccc(F)c2)sc1C(=O)N[C@H]1CCCNC1 [AZD7762] | 0.68 | 0.045 | > 10 | 0.026 | 0.11 |  |  |  |
| 0.03 | 0.055 | 0.056 | COc1c(C)cnc(Cn2cnc3c(Cl)nc(N)nc32)c1C [BIIB021] | 0.11 | 0.067 | > 10 | 0.083 | 0.091 |  |  |  |
| 0.09 | 0.17 | 0.59 | C[C@@H](Oc1cc(-n2cnc3ccc(CN4CCN(C)CC4)cc32)sc1C(N)=O)c1ccccc1C(F)(F)F [GSK461364] |  |  | > 10 | 0.059 |  | 10 | 0.75 | EC50 (CHRF288-11 [8]): > 10 µM |
